# In US7348421B1, “Methods for production of p-hydroxybenzoate in bacteria” (North Carolina State University, priority 2000, dated 2008):
# Values joined by “and” are separate entries in the source; they are usually repeats but may differ in a detail not shown here. Equal values may be shown once. Read-outs that look alike come from different tables or passages of the source.
# Columns and labels:
# Ralstonia solanacearum = assay type: cell-based; conditions: gradient of PHBA between 0 and 30 g/L
# Pseudomonas stutzeri = assay type: cell-based; conditions: gradient of PHBA between 0 and 30 g/L
# Pseudomonas fluorescens = assay type: cell-based; conditions: gradient of PHBA between 0 and 30 g/L
# Bacillus subtilis = assay type: cell-based; conditions: gradient of PHBA between 0 and 30 g/L
# Pseudomonas aeruginosa = assay type: cell-based; conditions: gradient of PHBA between 0 and 30 g/L
# Pseudomonas vesicularis = assay type: cell-based; conditions: gradient of PHBA between 0 and 30 g/L
# Alcaligenes eutrophus = assay type: cell-based; conditions: gradient of PHBA between 0 and 30 g/L
# [1] = test system: Acinetobacter calcoaceticus; assay type: cell-based; conditions: gradient of PHBA between 0 and 30 g/L
# Pseudomonas putida EEZ10 = assay type: cell-based; conditions: gradient of PHBA between 0 and 30 g/L
# Escherichia coli ET8000 = assay type: cell-based; conditions: gradient of PHBA between 0 and 30 g/L
# Pseudomonas putida R1 = assay type: cell-based; conditions: gradient of PHBA between 0 and 30 g/L
# PhoA5 mutant = experiment: Survival after sudden pHBA shock with or without Fe-citrate; assay type: cell-based, Pseudomonas putida
# [2] = test system: Pseudomonas putida DOT-T1E; experiment: Growth in M9 liquid medium with glucose and p-hydroxybenzoate; assay type: cell-based; conditions: M9 with glucose
# [3] = test system: Pseudomonas putida DOT-T1E; experiment: pHBA shock after preculture on pHBA, 1 or 10 mM MgSO4; assay type: cell-based
# Enriched cultures = experiment: Selection on TSA plates with toluene and pHBA; assay type: cell-based; conditions: dodecane:toluene overlay (100 ppm toluene)
# Procedure: Five transfers were made on glass plates with trypticase soy agar (TSA-Difco) medium with 10 g/L glucose. Toluene (˜0.5 mL) was added to the bottom of the inverted plates, saturating the medium and the gas phase. […]. This mixture was calculated to give 100 ppm toluene concentration in the liquid phase. […]
# strain C = experiment: Selection on TSA plates with toluene and pHBA; assay type: cell-based; conditions: 100 ppm toluene
# Procedure: (§1) Three more transfers were made in a TSA medium plus 10 g/L glucose, 100 mg/L cycloheximide, 5 g/L agar (Difco), and increasing concentrations of pHBA. The pH was adjusted to 7.2. Toluene to 100 ppm was added to the bottom of the glass desicator as a mixture of hexadecane:toluene (262 mL:26.5 mL). This mixture was expected to give 100 ppm toluene in the liquid phase in equilibrium. Selected strains C and F (DGL#325) grew on 40 g/L pHBA after few day of incubation, strain C grew at 50 g/l pHBA after 10 days of incubation. Under microscope strain C grew in long chains.
# strain F (DGL#325) = experiment: Selection on TSA plates with toluene and pHBA; assay type: cell-based, Pseudomonas mendocina; conditions: 100 ppm toluene, after few day of incubation
# Procedure: as §1, with “[…].” for “Selected strains C and F (DGL#325) grew on 40 g/L pHBA after few day of incubation, strain C grew at 50 g/l pHBA after 10 days of incubation.”
# [4] = test system: P. putida PhoA5 with pPAT8; conditions: gradient 0-20 g/L
# [5] = test system: P. mendocina KR1 with pPAT7; conditions: gradient 0-20 g/L
# [6] = test system: P. mendocina KR1 with pPAT8; conditions: gradient 0-20 g/L
# [7] = test system: P. putida KT2440 with pPAT7; conditions: gradient 0-20 g/L
# [8] = test system: P. mendocina krc16DkpobA51a (#303); conditions: gradient 0 to 40 g/L, 24 h, 30° C.
# E. coli K12 (#327) = conditions: gradient 0 to 40 g/L, 24 h, 30° C.
# P. mendocina KR1 (#363) = experiment: Growth on pHBA gradient plates; conditions: gradient 0 to 40 g/L, 24 h, 30° C.
# P. mendocina KR1 = conditions: P. mendocina KR1, plasmid none, gradient 0-20 g/L
# P. putida KT2440 = conditions: P. putida KT2440, plasmid none; gradient 0-20 g/L
# [9] = test system: P. putida KT2440 with pPAT8; conditions: gradient 0-20 g/L
# [10] = test system: Pseudomonas putida DOT-T1E; experiment: Halo-inhibition test with antibiotic disks on minimal medium; assay type: cell-based; conditions: wild-type; Halo-inhibition test
# [11] = test system: P. mendocina krc16DkpobA51a (#303); assay type: cell-based, Pseudomonas mendocina; conditions: gradient 0-100 mg/L, repeated lines
# [12] = test system: P. mendocina KR1-A (#362); assay type: cell-based, Pseudomonas mendocina; conditions: gradient 0-100 mg/L, repeated lines
compound,measurement,setting,value
"O=C(O)c1ccc(O)cc1 [pHBA, p-hydroxybenzoic acid]",pHBA tolerance or sensitivity,Ralstonia solanacearum,sensitive
same,pHBA tolerance or sensitivity,Pseudomonas stutzeri,sensitive
same,pHBA tolerance or sensitivity,Pseudomonas fluorescens,sensitive
same,pHBA tolerance or sensitivity,Bacillus subtilis,sensitive
same,pHBA tolerance or sensitivity,Pseudomonas aeruginosa,sensitive
same,pHBA tolerance or sensitivity,Pseudomonas vesicularis,sensitive
same,pHBA tolerance or sensitivity,Alcaligenes eutrophus,sensitive
same,pHBA tolerance or sensitivity,[1],tolerant
same,pHBA tolerance or sensitivity,Pseudomonas putida EEZ10,tolerant
same,pHBA tolerance or sensitivity,Escherichia coli ET8000,tolerant
same,pHBA tolerance or sensitivity,Pseudomonas putida R1,tolerant
same,survival after pHBA shock,"PhoA5 mutant; 12 g/L PHBA, absence of iron",about 0.0001%
same,survival after pHBA shock,"PhoA5 mutant; 12 g/L PHBA, with extra iron (Fe-citrate)",~100%
same,survival after pHBA shock,"PhoA5 mutant; 18 g/L, absence of iron",no cells survived
same,survival after pHBA shock,"PhoA5 mutant; 18 g/L, supplemented with iron",0.001%
same,growth (CFU per mL),[2]; 6 g/L of p-hydroxybenzoate,growth was exponential
same,growth (CFU per mL),[2]; 12 or higher g/L p-hydroxybenzoate,number of viable cells decreased
same,cell viability after pHBA shock,"[3]; cells not pregrown on pHBA, 30 and 36 g/L, 24 h after the shock",no cells were recovered
same,cell viability after pHBA shock,"[3]; cells not pregrown on pHBA, >18 g/L, 1 or 10 mM MgSO4",marked decrease in cell viability
same,cell viability after pHBA shock,"[3]; preinduced cells, 30 and 36 g/L pHBA, 1 mM MgSO4, 24 h after the shock",cells were not recoverable
same,decrease in number of viable cells after pHBA shock,"[3]; preinduced cells, 30 g/L, 10 mM MgSO4, growth resumed afterwards",~6 orders of magnitude
same,cell viability after pHBA shock,"[3]; preinduced cells, up to 0.18 g/L PHBA, regardless of MgSO4",no significant effect on cell viability
same,pHBA concentration at which cultures grew,Enriched cultures,20 g/L
same,pHBA concentration at which strain grew,strain C; after 10 days of incubation,50 g/l
same,pHBA concentration at which strain grew,strain C; after few day of incubation,40 g/L
same,pHBA concentration at which strain grew,strain F (DGL#325),40 g/L
same,pHBA Tolerance,[4],17 g/L
same,pHBA Tolerance,[5],~10 g/L
same,pHBA Tolerance,[6],10.2 g/L
same,pHBA Tolerance,[6]; listed as PHBA,~10 g/L
same,pHBA Tolerance,[7],17 g/L
same,growth on pHBA gradient plates,[8],10 mm and 15 mm
same,growth on pHBA gradient plates,E. coli K12 (#327),35 mm and 20 mm
same,growth on pHBA gradient plates,P. mendocina KR1 (#363),10 mm and 20 mm
same,pHBA Tolerance,P. mendocina KR1,8.5 g/L
same,pHBA Tolerance,P. mendocina KR1; listed as PHBA,about 8.5 g/L
same,pHBA Tolerance,P. putida KT2440,17 g/L
same,pHBA Tolerance,[9],18.5 g/L
"O=C(N[C@H](CO)[C@H](O)c1ccc([N+](=O)[O-])cc1)C(Cl)Cl [CAM, chloramphenicol]",tolerance/sensitivity to antibiotic,[10],tolerant
same,Growth (distance in mm) on CAM gradient,[11],10 mm and 15 mm
same,Growth (distance in mm) on CAM gradient,[12],15 mm and 10 mm
